ChEMBL document CHEMBL1130110 (J Med Chem, 1997)

Legend:
[1] = molecular target: Glucagon receptor (Rattus norvegicus) (UniProt P30082); test: Percent stimulation of cAMP production over basal.; assay type: functional; set-up: concentration or dose not given beside the values
[2] = molecular target: Glucagon receptor (Rattus norvegicus) (UniProt P30082); test: Relative binding potency expressed as receptor binding IC50 for glucagon by receptor binding IC50 for compound

Sequence of Glucagon receptor (Rattus norvegicus) (P30082 whole entry): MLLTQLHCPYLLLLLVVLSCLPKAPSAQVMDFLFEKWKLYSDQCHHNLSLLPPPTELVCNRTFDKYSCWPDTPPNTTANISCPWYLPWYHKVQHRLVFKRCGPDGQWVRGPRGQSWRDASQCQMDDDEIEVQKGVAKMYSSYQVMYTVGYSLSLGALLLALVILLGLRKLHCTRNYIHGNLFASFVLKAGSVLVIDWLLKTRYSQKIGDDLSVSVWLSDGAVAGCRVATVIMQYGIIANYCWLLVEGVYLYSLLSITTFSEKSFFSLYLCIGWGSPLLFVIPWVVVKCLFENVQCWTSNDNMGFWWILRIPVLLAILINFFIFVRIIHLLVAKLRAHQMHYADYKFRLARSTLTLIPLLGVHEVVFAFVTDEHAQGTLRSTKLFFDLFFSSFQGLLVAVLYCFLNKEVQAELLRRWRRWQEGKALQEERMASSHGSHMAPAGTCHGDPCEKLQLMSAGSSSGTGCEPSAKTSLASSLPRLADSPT

| Structure (SMILES) | Activity [1] | Activity [2] |
| --- | --- | --- |
| CSCC[C@@H](NC(=O)[C@@H](CC(C)C)NC(=O)[C@@H](Cc1c[nH]c2ccccc12)NC(=O)[C@@H](CCC(N)=O)NC(=O)[C@H](NC(=O)[C@@H](Cc1ccccc1)NC(=O)[C@@H](CC(=O)O)NC(=O)[C@@H](CCC(N)=O)NC(=O)[C@@H](C)NC(=O)[C@@H](CCCN=C(N)N)NC(=O)[C@@H](CCCN=C(N)N)NC(=O)[C@@H](CO)NC(=O)[C@@H](CC(=O)O)NC(=O)[C@@H](CC(C)C)NC(=O)[C@@H](Cc1ccc(O)cc1)NC(=O)[C@@H](CCCCN)NC(=O)[C@@H](CO)NC(=O)[C@@H](Cc1ccc(O)cc1)NC(=O)[C@@H](CC(=O)O)NC(=O)[C@@H](CO)NC(=O)[C@H](NC(=O)[C@H](NC(=O)CNC(=O)[C@@H](CCC(N)=O)NC(=O)[C@H](N)CO)[C@H](C)O)[C@H](C)O)C(C)C)C(=O)N[C@H](CC(N)=O)C(=O)N[C@@H](C(=O)O)[C@H](C)O | 0% | 1% |
| CSCC[C@@H](NC(=O)[C@@H](CC(C)C)NC(=O)[C@@H](Cc1c[nH]c2ccccc12)NC(=O)[C@@H](CCC(N)=O)NC(=O)[C@H](NC(=O)[C@@H](Cc1ccccc1)NC(=O)[C@@H](CC(=O)O)NC(=O)[C@@H](CCC(N)=O)NC(=O)[C@@H](C)NC(=O)[C@@H](CCCN=C(N)N)NC(=O)[C@@H](CCCN=C(N)N)NC(=O)[C@@H](CO)NC(=O)[C@@H](CC(=O)O)NC(=O)[C@@H](CC(C)C)NC(=O)[C@@H](Cc1ccc(O)cc1)NC(=O)[C@@H](CCCCN)NC(=O)[C@@H](CO)NC(=O)[C@@H](Cc1ccc(O)cc1)NC(=O)[C@@H](CCC(=O)O)NC(=O)[C@@H](CO)NC(=O)[C@H](NC(=O)[C@@H](Cc1ccc(O)cc1)NC(=O)[C@H](NC(=O)CNC(=O)[C@@H](CCC(N)=O)NC(=O)[C@H](N)CO)[C@H](C)O)[C@H](C)O)C(C)C)C(=O)N[C@H](CC(N)=O)C(=O)N[C@@H](C(N)=O)[C@H](C)O | 0% | 3.8% |
| CCCC[C@H](NC(=O)[C@H](NC(=O)CNC(=O)[C@@H](CCC(N)=O)NC(=O)[C@H](N)CO)[C@H](C)O)C(=O)N[C@@H](C(=O)N[C@H](CO)C(=O)N[C@H](CCC(=O)O)C(=O)N[C@H](Cc1ccc(O)cc1)C(=O)N[C@H](CO)C(=O)N[C@H](CCCCN)C(=O)N[C@H](Cc1ccc(O)cc1)C(=O)N[C@H](CC(C)C)C(=O)N[C@H](CC(=O)O)C(=O)N[C@H](CO)C(=O)N[C@H](CCCN=C(N)N)C(=O)N[C@H](CCCN=C(N)N)C(=O)N[C@H](C)C(=O)N[C@H](CCC(N)=O)C(=O)N[C@H](CC(=O)O)C(=O)N[C@H](Cc1ccccc1)C(=O)N[C@@H](C(=O)N[C@H](CCC(N)=O)C(=O)N[C@H](Cc1c[nH]c2ccccc12)C(=O)N[C@H](CC(C)C)C(=O)N[C@H](CCSC)C(=O)N[C@H](CC(N)=O)C(=O)N[C@@H](C(N)=O)[C@H](C)O)C(C)C)[C@H](C)O | 12% | 3.1% |
| CSCC[C@@H](NC(=O)[C@@H](CC(C)C)NC(=O)[C@@H](Cc1c[nH]c2ccccc12)NC(=O)[C@@H](CCC(N)=O)NC(=O)[C@H](NC(=O)[C@@H](Cc1ccccc1)NC(=O)[C@@H](CC(=O)O)NC(=O)[C@@H](CCC(N)=O)NC(=O)[C@@H](C)NC(=O)[C@@H](CCCN=C(N)N)NC(=O)[C@@H](CCCN=C(N)N)NC(=O)[C@@H](CO)NC(=O)[C@@H](CC(=O)O)NC(=O)[C@@H](CC(C)C)NC(=O)[C@@H](Cc1ccc(O)cc1)NC(=O)[C@@H](CCCCN)NC(=O)[C@@H](CO)NC(=O)[C@@H](Cc1ccc(O)cc1)NC(=O)[C@@H](CCC(=O)O)NC(=O)[C@@H](CO)NC(=O)[C@H](NC(=O)[C@@H](Cc1ccccc1)NC(=O)[C@H](NC(=O)[C@@H](CCC(N)=O)NC(=O)[C@H](N)CO)[C@H](C)O)[C@H](C)O)C(C)C)C(=O)N[C@H](CC(N)=O)C(=O)N[C@@H](C(N)=O)[C@H](C)O | 6% | 3% |
| CSCC[C@@H](NC(=O)[C@@H](CC(C)C)NC(=O)[C@@H](Cc1c[nH]c2ccccc12)NC(=O)[C@@H](CCC(N)=O)NC(=O)[C@H](NC(=O)[C@@H](Cc1ccccc1)NC(=O)[C@@H](CC(=O)O)NC(=O)[C@@H](CCC(N)=O)NC(=O)[C@@H](C)NC(=O)[C@@H](CCCN=C(N)N)NC(=O)[C@@H](CCCN=C(N)N)NC(=O)[C@@H](CO)NC(=O)[C@@H](CC(=O)O)NC(=O)[C@@H](CC(C)C)NC(=O)[C@@H](Cc1ccc(O)cc1)NC(=O)[C@@H](CCCCN)NC(=O)[C@@H](CO)NC(=O)[C@@H](Cc1ccc(O)cc1)NC(=O)[C@@H](CCC(=O)O)NC(=O)[C@@H](CO)NC(=O)[C@H](NC(=O)[C@@H](CC(=O)O)NC(=O)[C@H](NC(=O)CNC(=O)[C@@H](CCC(N)=O)NC(=O)[C@H](N)CO)[C@H](C)O)[C@H](C)O)C(C)C)C(=O)N[C@H](CC(N)=O)C(=O)N[C@@H](C(N)=O)[C@H](C)O | 0% | < 0.1% |
| CC(C)C[C@@H](NC(=O)[C@@H](Cc1ccc(O)cc1)NC(=O)[C@@H](CCCCN)NC(=O)[C@@H](CO)NC(=O)[C@@H](Cc1ccc(O)cc1)NC(=O)[C@@H](CC(=O)O)NC(=O)[C@@H](CO)NC(=O)[C@H](NC(=O)[C@H](NC(=O)CNC(=O)[C@@H](CCC(N)=O)NC(=O)[C@@H](CO)NC(=O)[C@H](N)Cc1c[nH]cn1)[C@H](C)O)[C@H](C)O)C(=O)N[C@H](CC(=O)O)C(=O)N[C@H](CO)C(=O)N[C@H](CCCN=C(N)N)C(=O)N[C@H](CCCN=C(N)N)C(=O)N[C@H](C)C(=O)N[C@H](CCC(N)=O)C(=O)N[C@H](CC(=O)O)C(=O)N[C@H](Cc1ccccc1)C(=O)N[C@@H](C(=O)N[C@H](CCC(N)=O)C(=O)N[C@H](Cc1c[nH]c2ccccc12)C(=O)N[C@H](CC(C)C)C(=O)N[C@H](CCS)C(=O)N[C@H](CC(N)=O)C(=O)N[C@@H](C=O)[C@H](C)O)C(C)C | 0% | 0.3% |
| CSCC[C@@H](NC(=O)[C@@H](CC(C)C)NC(=O)[C@@H](Cc1c[nH]c2ccccc12)NC(=O)[C@@H](CCC(N)=O)NC(=O)[C@H](NC(=O)[C@@H](Cc1ccccc1)NC(=O)[C@@H](CC(=O)O)NC(=O)[C@@H](CCC(N)=O)NC(=O)[C@@H](C)NC(=O)[C@@H](CCCN=C(N)N)NC(=O)[C@@H](CCCN=C(N)N)NC(=O)[C@@H](CO)NC(=O)[C@@H](CC(=O)O)NC(=O)[C@@H](CC(C)C)NC(=O)[C@@H](Cc1ccc(O)cc1)NC(=O)[C@@H](CCCCN)NC(=O)[C@@H](CO)NC(=O)[C@@H](Cc1ccc(O)cc1)NC(=O)[C@@H](CCC(=O)O)NC(=O)[C@@H](CO)NC(=O)[C@H](NC(=O)[C@@H](C)NC(=O)[C@H](NC(=O)CNC(=O)[C@@H](CCC(N)=O)NC(=O)[C@H](N)CO)[C@H](C)O)[C@H](C)O)C(C)C)C(=O)N[C@H](CC(N)=O)C(=O)N[C@@H](C(N)=O)[C@H](C)O | 0% | 1.2% |
| CSCC[C@@H](NC(=O)[C@@H](CC(C)C)NC(=O)[C@@H](Cc1c[nH]c2ccccc12)NC(=O)[C@@H](CCC(N)=O)NC(=O)[C@H](NC(=O)[C@@H](Cc1ccccc1)NC(=O)[C@@H](CC(=O)O)NC(=O)[C@@H](CCC(N)=O)NC(=O)[C@@H](C)NC(=O)[C@@H](CCCN=C(N)N)NC(=O)[C@@H](CCCN=C(N)N)NC(=O)[C@@H](CO)NC(=O)[C@@H](CC(=O)O)NC(=O)[C@@H](CC(C)C)NC(=O)[C@@H](Cc1ccc(O)cc1)NC(=O)[C@@H](CCCCN)NC(=O)[C@@H](CO)NC(=O)[C@@H](Cc1ccc(O)cc1)NC(=O)[C@@H](CCC(=O)O)NC(=O)[C@@H](CO)NC(=O)[C@H](NC(=O)[C@@H](Cc1c[nH]c2ccccc12)NC(=O)[C@H](NC(=O)CNC(=O)[C@@H](CCC(N)=O)NC(=O)[C@H](N)CO)[C@H](C)O)[C@H](C)O)C(C)C)C(=O)N[C@H](CC(N)=O)C(=O)N[C@@H](C(N)=O)[C@H](C)O | 0% | 7.9% |
| CSCC[C@@H](NC(=O)[C@@H](CC(C)C)NC(=O)[C@@H](Cc1c[nH]c2ccccc12)NC(=O)[C@@H](CCC(N)=O)NC(=O)[C@H](NC(=O)[C@@H](Cc1ccccc1)NC(=O)[C@@H](CC(=O)O)NC(=O)[C@@H](CCC(N)=O)NC(=O)[C@@H](C)NC(=O)[C@@H](CCCN=C(N)N)NC(=O)[C@@H](CCCN=C(N)N)NC(=O)[C@@H](CO)NC(=O)[C@@H](CC(=O)O)NC(=O)[C@@H](CC(C)C)NC(=O)[C@@H](Cc1ccc(O)cc1)NC(=O)[C@@H](CCCCN)NC(=O)[C@@H](CO)NC(=O)[C@@H](Cc1ccc(O)cc1)NC(=O)[C@@H](CCC(=O)O)NC(=O)[C@@H](CO)NC(=O)[C@H](NC(=O)[C@H](NC(=O)CNC(=O)[C@@H](CCC(N)=O)NC(=O)[C@H](N)CO)[C@H](C)O)[C@H](C)O)C(C)C)C(=O)N[C@H](CC(N)=O)C(=O)N[C@@H](C(N)=O)[C@H](C)O | 0% | 3.1% |
| CSCC[C@@H](NC(=O)[C@@H](CC(C)C)NC(=O)[C@@H](Cc1c[nH]c2ccccc12)NC(=O)[C@@H](CCC(N)=O)NC(=O)[C@H](NC(=O)[C@@H](Cc1ccccc1)NC(=O)[C@@H](CC(=O)O)NC(=O)[C@@H](CCC(N)=O)NC(=O)[C@@H](C)NC(=O)[C@@H](CCCN=C(N)N)NC(=O)[C@@H](CCCN=C(N)N)NC(=O)[C@@H](CO)NC(=O)[C@@H](CC(=O)O)NC(=O)[C@@H](CC(C)C)NC(=O)[C@@H](Cc1ccc(O)cc1)NC(=O)[C@@H](CCCCN)NC(=O)[C@@H](CO)NC(=O)[C@@H](Cc1ccc(O)cc1)NC(=O)[C@@H](CCC(=O)O)NC(=O)[C@@H](CO)NC(=O)[C@H](NC(=O)[C@H](NC(=O)CNC(=O)[C@@H](CCC(N)=O)NC(=O)[C@H](N)CO)[C@H](C)O)[C@H](C)O)C(C)C)C(=O)N[C@H](CC(N)=O)C(=O)N[C@@H](C(=O)O)[C@H](C)O (stereo in doubt; 13) | 0% | < 0.1% |
| CSCC[C@@H](NC(=O)[C@@H](CC(C)C)NC(=O)[C@@H](Cc1c[nH]c2ccccc12)NC(=O)[C@@H](CCC(N)=O)NC(=O)[C@H](NC(=O)[C@@H](Cc1ccccc1)NC(=O)[C@@H](CC(=O)O)NC(=O)[C@@H](CCC(N)=O)NC(=O)[C@@H](C)NC(=O)[C@@H](CCCN=C(N)N)NC(=O)[C@@H](CCCN=C(N)N)NC(=O)[C@@H](CO)NC(=O)[C@@H](CC(=O)O)NC(=O)[C@@H](CC(C)C)NC(=O)[C@@H](Cc1ccc(O)cc1)NC(=O)[C@@H](CCCCN)NC(=O)[C@@H](CO)NC(=O)[C@@H](Cc1ccc(O)cc1)NC(=O)[C@@H](CCC(=O)O)NC(=O)[C@@H](CO)NC(=O)[C@H](NC(=O)[C@H](NC(=O)CNC(=O)[C@@H](CCC(N)=O)NC(=O)[C@@H](CO)NC(=O)[C@H](N)Cc1c[nH]cn1)[C@H](C)O)[C@H](C)O)C(C)C)C(=O)N[C@H](CC(N)=O)C(=O)N[C@@H](C(N)=O)[C@H](C)O | 0% | 1.3% |
